In experiment [1] the test system is brine shrimp (Artemia salina Leach). The experiment is described as follows: Brine shrimp lethality test (BST). The format is in vivo. The following applies: Artemia salina, read-out: BST LC50. On the procedure: (§1) The brine shrimp (Artemia salina Leach) test (BST) was performed as modified to determine LC50 values in μg/ml. Seven-day in vitro cytotoxicity tests against human tumor cell lines were carried out at the Purdue Cancer Center, using standard protocols for A-549 (human lung carcinoma), MCF-7 (human breast carcinoma) and HT-29 (human colon carcinoma) with adriamycin as a positive control. The reported ED50 values in μg/ml (Table 5) were tabulated from the same run in order to facilitate comparison for the SAR's.
(§2) Bioassays. The brine shrimp (Artemia salina Leach) test (BST) was performed as modified. Zhao et al., Phytochemistry, 33, p. 1065 (1993). Seven-day in vitro cytotoxicity tests against human tumor cell lines were carried out at the Purdue Cancer Center, using standard protocols for A-549 (human lung carcinoma), Gu, Z. M.; Fang, X.-P.; Miesbauer, L. R., Smith, D. L.; and McLaughlin, J. L., 30, 31, and 32-Hydroxybullatacinones: Bioactive Terminally-Hydroxylated Annonaceous Acetogenins from Annona bullata., J. Nat. Prod., 1993, 56, 870-876; MCF-7 (human breast carcinoma) McLaughlin, J. L., Chang, C.-J., and Smith, D. L., Simple Bench-Top Bioassays (Brine Shrimp and Potato Discs) for the Discoveries of Plant Antitumor Compounds: A Review of Recent Progress. In Kinghorn, A. D., Balandrin, J. (Eds): "Human Medicinal Agents from Plants", ACS Symposium Series, Washington, D.C., American Chemical Society, 1993, pp. 112-137; and HT-29 (human colon carcinoma), Mclaughlin, J.L., Chang, C.-J., Smith, D.L., "'Bench-Top' Bioassays for the Discovery of Bioactive Natural Products: An Update", in Rahman, Atta-ur- (Ed): "Studies in Natural Product Chemistry", Vol. 9, Amsterdam, Elsevier, 1991, pp. 383-409, with adriamycin as a positive control. The reported values (Table IV) were tabulated from the same run in order to facilitate comparison for the SAR's.
(§3) Bioassay. The extracts, fractions, and isolates were routinely evaluated for lethality to brine shrimp larvae (BST). Cytotoxicities against human solid tumor cells were measured at the Purdue Cell Culture Laboratory, Purdue Cancer Center, for the A-549 lung carcinoma, MCF-7 breast carcinoma, and HT-29 colon adenocarcinoma.
(§4) The brine shrimp lethality test (BST), on newly hatched naupleii, was performed in our laboratory as previously described. McLaughlin, Methods in Plant Biochemistry, Vol. 6, Hostettmann, Academic Press, London, pp. 1-33 (1991). Seven day cytotoxicities against human solid tumor cells were measured at the Cell Culture Laboratory, Purdue Cancer Center, for the A-549 lung carcinoma, MCF-7 breast carcinoma, and HT-29 colon adenocarcinoma. The respiratory functions of rat liver mitochondria (RMB) were measured polarographically by determination of their rates of oxygen consumption after the addition of acetogenins or their derivatives.

Experiment [2] relates to A-549 (human lung carcinoma). The experiment in a line: Seven-day in vitro cytotoxicity, A-549. It counts as cell-based. Particulars: for IC50: A549, 168 h. How it is done: as §1, §2, §3, §4
Experiment [3] deals with MCF-7 (human breast carcinoma). The experiment is described as follows: Seven-day in vitro cytotoxicity, MCF-7. It counts as cell-based. The following applies: for IC50: MCF7, 168 h. How it is done: as §1, §2, §3, §4
Experiment [4] deals with HT-29 (human colon adenocarcinoma). The experiment in a line: Seven-day in vitro cytotoxicity, HT-29. The following applies: HT-29, 168 h, read-out: HT-29 LC50, Table 5, same run. The format is cell-based.
Experiment [5] shares this test system. The experiment is described as follows: Seven-day in vitro cytotoxicity, HT-29. It counts as cell-based. The following applies: for IC50: HT-29, 168 h. On the procedure:
as §1, §2, §3, §4

In experiment [6] the test system is A2780 human ovarian cancer xenografts. Particulars: 50 μg/kg; athymic mice bearing A2780 human ovarian cancer xenografts; cited from earlier work. A general note: In xenograft studies the graft and the host belong to different species.
For experiment [7], the system named is rat liver mitochondria. The experiment in a line: Rat mitochondrial bioassay (RMB), inhibition of oxygen uptake. The format is biochemical. Particulars: for mitochondrial inhibition: rat liver mitochondria, result in words; for RMB IC50: Table 17, oxygen consumption of rat liver mitochondria, parent and acetal derivative in the same run. On the procedure:
as §4
The oxidative phosphorylation pathway (or electron transport chain) is responsible for oxidizing NADH to NAD^+ and producing ATP from ADP and phosphate within the mitochondria. There are five enzyme complexes in this pathway: NADH-ubiquinone reductase (complex I), succinate-ubiquinone reductase (complex II), ubiquinone-cytochrome c reductase (complex III), cytochrome c oxidase (complex IV) and the F0 F1 -ATPase complex (complex V). The end point of the oxidative phosphorylation pathway is the reduction of oxygen (O2) to water in the mitochondria (thus, it is also called respiration), coupled with the synthesis of ATP by complex V. State 4 respiration is the oxidation of substrates in the absence of a phosphate acceptor (e.g., ADP). State 3 respiration occurs when a phosphate acceptor is present and oxygen utilization increases. The ratio of State 3 respiration to State 4 respiration is the respiratory control ratio (RCR).
The process of respiration can be measured by using an oxygen electrode to detect the amount of oxygen present in the assay cell. If respiration is occurring normally, the concentration of oxygen should slowly decrease as it is reduced to water. However, if there is some type of inhibition of oxidative phosphorylation occurring, the oxygen level will no longer decrease at the same rate. This rate of oxygen usage can be visualized by a chart recorder connected to the oxygen electrode. At normal respiration,a decreasing baseline slope will be established. During inhibition, however, the baseline slope should decrease (i.e., the slope will move closer to zero), since the oxygen present is no longer being reduced. In other words, the oxygen concentration in the assay cell is no longer decreasing at the same rate as in normal respiration. Furthermore, inhibition sites at specific complexes can be determined by competitive inhibition studies. This is accomplished by addition of a known inhibitor of, e.g., complex I, followed by the new respiration-inhibiting compound. […] This can be verified by trying inhibitors at other sites and by reversing the order, i.e., adding the new compound and then the known inhibitor.
The method for isolating rat liver mitochondria essentially followed the published methodology. Ahammadsahib et al., Life Sciences, 53, pgs. 1113-1120 (1993). The isolation buffer used for the isolation of mitochondria from rat liver consisted of 4 mM Tris-HC1, 0.5 mM EDTA, and 250 mM sucrose at a pH of 7.4. The isolation buffer was kept at refrigeration temperature at all times by storing on ice during the whole procedure. The rats were supplied by Sprague-Dawley, were male, and weighed approximately 300-320 grams. They were sacrificed with carbon dioxide, and the livers were removed and immediately placed in the isolation buffer on ice. The livers were then rinsed with several washings of cold buffer, cut into pieces, and homogenized. The homogenates were then centrifuged (Sorvall Superspeed RC2-B, 4° C) for 10 minutes at approximately 2000 rpms; the supernatant was next centrifuged for 20 minutes at approximately 9000 rpms. The pellet was reserved and resuspended in 2 ml of assay buffer with a glass pipet. The assay buffer consisted of 100 mM KC1, 5 mM KH2 PO4, 1 mM EDTA, 5 mM glutamate, 1 mM malate, and 20 mM Tris-HCl at a pH of 7.4 and was stored at room temperature. […]

Setting [8] is: read-out: MCF-7 LC50, Table 5, seven-day cytotoxicity, same run.
The mark [9] stands for this setting: Table 17, seven day cytotoxicity, same run, read-out: A-549 ED50.
[10] abbreviates: Table 17, seven day cytotoxicity, same run, read-out: MCF-7 ED50.

Each structure is given as a SMILES string. Converted amounts (≈) assume the structure as drawn. Where two headings read alike, the source gives them in different places.

In the case of `COc1cccc2c1C(=O)c1c(O)c3c(c(O)c1C2=O)C[C@@](O)(C(=O)CO)C[C@@H]3O[C@H]1C[C@H](N)[C@H](O)[C@H](C)O1` [Adriamycin, adriamycin, reference compound], the 50% lethal concentration (LC50) is 257 ng/mL (≈ 473 nM) in experiment [1] (Table 5, brine shrimp larvae); 80 ng/mL (≈ 147 nM) in experiment [1] (Table 12); 80 ng/mL (≈ 147 nM) in experiment [1] (Table 17, same run). Also, the IC50 in experiment [2] (read-out: A-549 ED50) stood at 4.19 ng/mL (≈ 7.71 nM); in experiment [2] (read-out: A-549 LC50) it was 0.104 ng/mL (≈ 0.191 nM); in experiment [3] (read-out: MCF-7 ED50, Table 17, seven day cytotoxicity, same run), 401 ng/mL (≈ 738 nM); in experiment [3] (setting [8]), 17.6 ng/mL (≈ 32.4 nM); in experiment [3] (read-out: MCF-7 LC50, Table 12, same run) it was 231 ng/mL (≈ 425 nM); in experiment [4] it was 0.153 ng/mL (≈ 0.281 nM). The IC50 in experiment [5] (read-out: HT-29 ED50, Table 17, seven day cytotoxicity, same run) is 35.5 ng/mL (≈ 65.3 nM); in experiment [5] (read-out: HT-29 LC50, Table 12, same run), 39.2 ng/mL (≈ 72.1 nM). In addition, the EC50 came to 8.5 ng/mL (≈ 15.6 nM) in experiment [2] (A549, read-out: A-549); 519 ng/mL (≈ 955 nM) in experiment [3] (MCF7, read-out: MCF-7); 37.2 ng/mL (≈ 68.4 nM) in experiment [5] (HT-29, read-out: HT-29).

Consider `CCCCCCCCCC[C@H](O)[C@H]1CC[C@H]([C@H]2CC[C@H]([C@H](O)CCCCCCCCCC[C@@H](O)CC3=C[C@H](C)OC3=O)O2)O1` [Bullatacin, reference compound], for which, in experiment [6], the “tumor growth inhibition (TGI)” value is on record as 67%. Besides, the mitochondrial inhibition entry in experiment [7] is on record as “high activity”.

Turning to `CCCCCCCCCCC(O)C1CCC(C2CCC(C(O)CCCCC(O)CCCCCCCC3=CC(C)OC3=O)O2)O1` (stereo not drawn) [Compound 1, Bullatin], in experiment [1] (Table 5, brine shrimp larvae), the LC50 came to 4 ng/mL (≈ 6.42 nM). Also, the mitochondrial inhibition result in experiment [7] was “high activity”. Moreover, the figures for the IC50 in experiment [2] (read-out: A-549 LC50), in experiment [3] (setting [8]) and in experiment [4] were 0.00939 ng/mL (≈ 0.0151 nM), 0.00833 ng/mL (≈ 0.0134 nM) and 0.00378 ng/mL (≈ 0.00607 nM), respectively.

Consider `CCCCCCCCCCCCCC[C@@H](O)[C@H]1CC[C@H]([C@H]2CC[C@@H](CCCCC[C@@H](O)CC3=C[C@H](C)OC3=O)OCO2)O1` [Compound 9, 10,13-Formaldehyde acetal derivative of goniothalamicin], for which, in experiment [1] (Table 17, same run), the median lethal concentration (LC50) came to 53.8 ng/mL (≈ 88.4 nM). In experiment [7], the “RMB IC50” value is reported as 203.1 n moles/Lt/mg protein. For the same compound, the IC50 in experiment [2] (setting [9]) was determined as 1050 ng/mL (≈ 1720 nM); in experiment [3] (setting [10]), 0.409 ng/mL (≈ 0.672 nM); in experiment [5] (Table 17, seven day cytotoxicity, same run, read-out: HT-29 ED50) it was 0.0219 ng/mL (≈ 0.036 nM).

For `CCCCCCCCCCCCCC[C@@H](O)[C@H](O)CC[C@H](O)[C@@H]1CC[C@@H](CCCCC[C@@H](O)CC2=C[C@H](C)OC2=O)O1` [Compound 10, Gigantetrocin A, reference compound], the LC50 in experiment [1] (Table 17, same run) is 600 ng/mL (≈ 1010 nM). Also, the “RMB IC50” value in experiment [7] worked out at 287.1 n moles/Lt/mg protein. Besides, the IC50 in experiment [2] (setting [9]) was determined as 4.52e-05 ng/mL (≈ 7.57e-05 nM); in experiment [3] (setting [10]), 0.355 ng/mL (≈ 0.595 nM).

For orientation: LC50 means the concentration lethal to half of the exposed cells or organisms.

These data come from patent publication US5536848A, “Bioactive acetogenins and derivatives” (Purdue Research Foundation, priority 1994, dated 1996).
